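Grown in 96-well plates, cells were treated for 48 hours with each compound at five concentrations. Insufficient inhibition: endpoint recorded as highest concentration tested. GI50: concentration for 50% inhibition of growth.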 Activity calls are given as the source filed them. Rule as the data show it: active = GI50 up to about 1.1 µM and inactive = higher. Bounds are passed on as bounds.

Eight compounds from ChEMBL document CHEMBL1201862, “PubChem BioAssay data set” (2004) can be followed below.

Holding throughout (assay): NCI tumour cell line growth inhibition, 48 h
The subject of assay [1] is NCI-H522.
Assay [2] concerns M14.
Assay [3] concerns BT-549.
The test system of assay [4] is SR.
The test system of assay [5] is COLO 205.
Assay [6] has as its system UACC-62.
Assay [7] relates to SK-OV-3.
The test system of assay [8] is 786-0.
For assay [9], the system named is HOP-62.
For assay [10], the system named is T47D.
Assay [11] has as its system HCT-15.
The subject of assay [12] is LOX IMVI.
The subject of assay [13] is SK-MEL-5.
For assay [14], the system named is KM12.
The test system of assay [15] is A549.
In assay [16] the test system is K562.
The subject of assay [17] is PC-3.
Assay [18] relates to NCI-H23.
Assay [19] relates to SK-MEL-28.
Assay [20] deals with RPMI-8226.

For the compound `CC(=O)C1(O)Cc2c(O)c3c(c(O)c2C(OC2CC(N)C(O)C(C)O2)C1)C(=O)c1ccccc1C3=O` (stereo not drawn), the GI50 was 0.015 µM (active) in assay [1]; 0.0452 µM (active) in [2]; 0.134 µM (active) in [3]; 0.0292 µM (active) in assay [4]; 0.0796 µM (active) in assay [5]; 0.0303 µM (active) in [6]. The GI50 is 0.161 µM (active) in [7]; 0.0152 µM (active) in [8]; 0.0141 µM (active) in assay [9]; 0.0497 µM (active) in [10]; 0.0277 µM in assay [11]; 0.01 µM (active) in assay [12]. Besides, the GI50 is 0.0241 µM (active) in assay [13]; 0.0498 µM (active) in assay [14]; 0.0248 µM (active) in assay [15]; 0.083 µM (active) in [16]; 0.247 µM (active) in [17]; 0.0227 µM (active) in assay [18].
On to `N#CC1C(=O)NC(=O)C(C#N)C1c1ccc(Cl)c(Cl)c1` (stereo not drawn), for which the GI50 is 15.7 µM (inactive) in assay [1]; 23.4 µM (inactive) in assay [2]; 30.6 µM (inactive) in [19]; 33.3 µM (inactive) in assay [3]; 18.2 µM (inactive) in assay [4]; > 100 µM (inactive) in assay [5]. Further, the GI50 in assay [7] is > 100 µM (inactive); in [8] it was 20.1 µM (inactive); in [9], 20.4 µM (inactive); in [10], 33.3 µM (inactive); in [11], 21.5 µM; in assay [12], 17.1 µM (inactive). In addition, the GI50 in assay [13] is 20.9 µM (inactive); in assay [14], 33.7 µM (inactive); in [15] it was 49.3 µM (inactive); in assay [16] it was 28.8 µM (inactive); in assay [17] it was 28.2 µM (inactive); in assay [18], 21.4 µM (inactive).
With `C=CC(C)(C)c1cc([C@@H]2COc3cc(O)ccc3C2=O)c(O)c(O)c1OC`, the GI50 is 17 µM (inactive) in assay [1]; 22.3 µM (inactive) in assay [2]; 27.8 µM (inactive) in assay [19]; 18 µM (inactive) in [3]; 22.3 µM (inactive) in assay [4]; 26.7 µM (inactive) in assay [5]. Also, the GI50 in [6] is 18.1 µM (inactive); in assay [7], 29.1 µM (inactive); in [8], 14.3 µM (inactive); in assay [10], 25.4 µM (inactive); in assay [11], 16.5 µM; in assay [12], 16.2 µM (inactive). The GI50 is 19.7 µM (inactive) in assay [13]; 19.8 µM (inactive) in assay [14]; 33.7 µM (inactive) in assay [15]; 34.8 µM (inactive) in assay [16]; 18.7 µM (inactive) in assay [17]; 17.1 µM (inactive) in assay [18].
For `O=C(OCC(Cl)(Cl)Cl)O[C@@H]1CCCC1(c1ccccc1)c1ccccc1`, the GI50 was 38.7 µM (inactive) in assay [1]; > 100 µM (inactive) in [2]; 78.7 µM (inactive) in [19]; > 100 µM (inactive) in [3]; 12.6 µM (inactive) in [4]; > 100 µM (inactive) in assay [5]. The GI50 was > 100 µM (inactive) in [6]; > 100 µM (inactive) in assay [7]; > 100 µM (inactive) in [8]; > 100 µM (inactive) in assay [9]; 72.1 µM (inactive) in [10]; 77.4 µM in [11]. Besides, the GI50 in [12] is 76.7 µM (inactive); in [13], 35.9 µM (inactive); in assay [14], 45.3 µM (inactive); in assay [15], 65.3 µM (inactive); in assay [16], 30.8 µM (inactive); in assay [17] it was 37.5 µM (inactive). In assay [18], the GI50 is 68.1 µM (inactive).
In the case of `COc1ccc(Nc2nc3ccccc3nc2C(=O)O)cc1`, the GI50 in assay [1] was 92 µM (inactive); in assay [2], > 100 µM (inactive); in assay [19] it was 68.4 µM (inactive); in [3], > 100 µM (inactive); in [4] it was 48.6 µM (inactive); in assay [5] it was 37.7 µM (inactive). Moreover, the GI50 in assay [6] was > 100 µM (inactive); in assay [7], 9.04 µM (inactive); in assay [8] it was 49.1 µM (inactive); in [9], > 100 µM (inactive); in [10], 53.6 µM (inactive); in [11], 36.1 µM. Moreover, the GI50 in assay [12] is 60.1 µM (inactive); in assay [13] it was 37.2 µM (inactive); in assay [14], 26.2 µM (inactive); in [15] it was > 100 µM (inactive); in [16] it was 63.4 µM (inactive); in assay [17], > 100 µM (inactive). Further, in [18], the GI50 was 66.7 µM (inactive).
On to `CC1(c2ccc(Cl)cc2)c2ccccc2C(=O)N1CCCN1C(=O)c2ccccc2C1=O` (stereo not drawn), for which the GI50 in assay [19] is 69.5 µM (inactive); in assay [3], > 100 µM (inactive); in assay [4] it was 34.6 µM (inactive); in [5], 18.5 µM (inactive); in assay [6], 30.1 µM (inactive); in assay [7] it was 31.2 µM (inactive). The GI50 is 26.2 µM (inactive) in [8]; 49.7 µM (inactive) in [9]; 33.3 µM (inactive) in [20]; 21.3 µM (inactive) in [10]; 34 µM in [11]; 19.6 µM (inactive) in assay [12]. In addition, the GI50 in [13] is 16.4 µM (inactive); in assay [14], 20.9 µM (inactive); in assay [15], 24.7 µM (inactive); in assay [16] it was 50.5 µM (inactive); in assay [17] it was 83 µM (inactive); in [18] it was 25.4 µM (inactive).
Turning to `COc1ccccc1C[C@@H]1OC2(C=CC(=O)C=C2)O[C@H]1Cc1ccccc1OC`, the GI50 is 7.5 µM (inactive) in assay [2]; 8.81 µM (inactive) in [19]; 2.64 µM (inactive) in assay [3]; 1.78 µM (inactive) in [4]; 8.11 µM (inactive) in [5]; 10.3 µM (inactive) in [6]. The GI50 in assay [7] was 11.4 µM (inactive); in [8] it was 1.39 µM (inactive); in assay [9], 7.4 µM (inactive); in assay [20], 1.71 µM (inactive); in [10], 19.2 µM (inactive); in [11], 5.21 µM. Further, the GI50 is 6.14 µM (inactive) in assay [12]; 8.99 µM (inactive) in [13]; 8.69 µM (inactive) in [14]; 21.7 µM (inactive) in [15]; 11.5 µM (inactive) in assay [16]; 8.69 µM (inactive) in assay [17]. For the same compound, in [18], the GI50 was 8.75 µM (inactive).
With `Oc1ccccc1/C=N/N1C(=S)N(C23CC4CC(CC(C4)C2)C3)C(=N\c2ccccc2)/C1=N/c1ccccc1`, the GI50 was 12.8 µM (inactive) in assay [1]; > 100 µM (inactive) in assay [2]; > 100 µM (inactive) in assay [19]; 38.9 µM (inactive) in [3]; 43.3 µM (inactive) in assay [4]; 94.4 µM (inactive) in assay [5]. Besides, the GI50 in [6] was > 100 µM (inactive); in assay [7], > 100 µM (inactive); in assay [8], > 100 µM (inactive); in [9] it was > 100 µM (inactive); in assay [20] it was 6.15 µM (inactive); in [10], 9.35 µM (inactive). The GI50 in [11] was more than 100 µM; in assay [13], 23.4 µM (inactive); in [14], > 100 µM (inactive); in assay [15] it was > 100 µM (inactive); in [16], 4.46 µM (inactive); in assay [17] it was 8.38 µM (inactive). Moreover, in assay [18], the GI50 is > 100 µM (inactive).
